From the NIST ThermoML archive (doi:10.1021/je8002157)
± gives the expanded uncertainty stated by the source.

Details: Crystal; DTA

**Q.** For `NC(=O)N1c2ccccc2C=Cc2ccccc21` [carbamazepine], which Normal melting temperature is on record?
**A.** 193.00 ± 1 °C
